We go through 40 compounds from patent US9890142B2, “PDE4 inhibitor” (Meiji Seika Pharma Co., Ltd., priority 2013, dated 2018).

The subject of this assay is PDE4. Nature of the assay: Evaluation of PDE4 inhibition (scintillation proximity assay). It counts as biochemical. Conditions: inhibition rate relative to control, test compound at 1 μM. Put shortly:
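PDE4 was incubated 120 min at room temperature with [3H]-cAMP and compound in 50 mM Tris-HCl pH 7.5, 8.3 mM MgCl2, 1.7 mM EDTA, 0.3 mg/mL BSA. Product captured on ZnSO4-containing YSi-SPA beads and counted; inhibition calculated against DMSO control after no-enzyme blank subtraction.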
On the technique in general: Scintillation proximity formats need no separation of bound from free tracer.

With `C[C@H]1CNCCN1c1nc2cc(Cl)cc(Oc3nccs3)c2o1` [Example 77, (S)-5-Chloro-2-(2-methylpiperazin-1-yl)-7-(thiazol-2-yloxy)benzoxazole], the “PDE4 inhibitory activity (1 μM (%))” value was found to be 30%. With `C[C@H]1CNCCN1c1nc2cc(Cl)cc(Oc3ccccc3)c2o1` [Example 70, (S)-5-Chloro-2-(2-methylpiperazin-1-yl)-7-phenoxybenzoxazole], the “PDE4 inhibitory activity (1 μM (%))” value was 38%. Take `CCCCc1cc(Cl)cc2nc(N3CCNC[C@@H]3C)oc12` [Example 32, (S)-7-n-Butyl-5-chloro-2-(2-methylpiperazin-1-yl)benzoxazole]: the “PDE4 inhibitory activity (1 μM (%))” value is recorded as 62%.

`CC(=O)c1cc(Cl)cc2nc(N3CCNC[C@@H]3C)oc12` [Example 3, (S)-7-Acetyl-5-chloro-2-(2-methylpiperazin-1-yl)benzoxazole]: the “PDE4 inhibitory activity (1 μM (%))” value is recorded as 50%. The figure for `CCN(CC)C(=O)c1cc(Cl)cc2nc(N3CCNC[C@@H]3C)oc12` [Example 97, (S)-5-Chloro-7-diethylaminocarbonyl-2-(2-methylpiperazin-1-yl)benzoxazole] is 10%. For the compound `C[C@H]1CNCCN1c1nc2c(C(F)(F)F)c(F)cc(-c3ccccn3)c2o1` [Example 117, (S)-5-Fluoro-2-(2-methylpiperazin-1-yl)-7-(pyridin-2-yl)-4-(trifluoromethyl)benzoxazole], the “PDE4 inhibitory activity (1 μM (%))” value turned out to be 88%. `C[C@H]1CNCCN1c1nc2c(OC(F)(F)F)c(F)cc(-n3cccn3)c2o1` [Example 136, (S)-5-Fluoro-2-(2-methylpiperazin-1-yl)-7-(1H-pyrazol-1-yl)-4-(trifluoromethoxy)benzoxazole]: the “PDE4 inhibitory activity (1 μM (%))” value is reported as 90%. The figure for `C[C@H]1CNCCN1c1nc2cc(Cl)cc(-c3ccc(F)cn3)c2o1` [Example 73, (S)-5-Chloro-7-(5-fluoropyridin-2-yl)-2-(2-methylpiperazin-1-yl)benzoxazole] is 93%.

Regarding `C[C@H]1CNCCN1c1nc2cc(C#N)cc(-c3nccs3)c2o1` [Example 112, (S)-5-Cyano-2-(2-methylpiperazin-1-yl)-7-(thiazol-2-yl)benzoxazole], the “PDE4 inhibitory activity (1 μM (%))” value stood at 94%. In the case of `C[C@H]1CNCCN1c1nc2cc(Br)ccc2o1` [Example 167, (S)-5-Bromo-2-(2-methylpiperazin-1-yl)benzoxazole], the “PDE4 inhibitory activity (1 μM (%))” value is listed as 16%. The result for `Cc1c(O)c(Cl)cc2nc(N3CCNC[C@@H]3C)oc12` [Example 162, (S)-5-Chloro-6-hydroxy-7-methyl-2-(2-methylpiperazin-1-yl)benzoxazole] reads 35%; that for `Cc1c(Cl)cc2nc(N3CCNC[C@@H]3C)oc2c1-c1ccccn1` [Example 137, (S)-5-Chloro-6-methyl-2-(2-methylpiperazin-1-yl)-7-(pyridin-2-yl)benzoxazole], 33%; that for `Cc1cnn(-c2cc(Cl)cc3nc(N4CCNC[C@@H]4C)oc23)c1` [Example 40, (S)-5-Chloro-7-(4-methyl-1H-pyrazol-1-yl)-2-(2-methylpiperazin-1-yl)benzoxazole], 68%. The figure for `C[C@H]1CNCCN1c1nc2cc(Cl)cc(-c3ncc(CO)s3)c2o1` [Example 55, (S)-5-Chloro-7-(5-hydroxymethylthiazol-2-yl)-2-(2-methylpiperazin-1-yl)benzoxazole] is 80%; for `C[C@H]1CNCCN1c1nc2c(F)c(F)c(F)c(-c3ccccn3)c2o1` [Example 122, (S)-4,5,6-Trifluoro-2-(2-methylpiperazin-1-yl)-7-(pyridin-2-yl)benzoxazole] it is 79%.

For the compound `C[C@H]1CNCCN1c1nc2cc(C(F)(F)F)cc(-c3nccs3)c2o1` [Example 126, (S)-2-(2-Methylpiperazin-1-yl)-7-(thiazol-2-yl)-5-(trifluoromethyl)benzoxazole], the “PDE4 inhibitory activity (1 μM (%))” value came to 95%.

As to `C[C@H]1CNCCN1c1nc2cc(Cl)cc(C3CC3)c2o1` [Example 27, (S)-5-Chloro-7-cyclopropyl-2-(2-methylpiperazin-1-yl)benzoxazole], the “PDE4 inhibitory activity (1 μM (%))” value stood at 85%.

For `Cc1cc(F)cc2nc(N3CCNC[C@@H]3C)oc12` [Example 5, (S)-5-Fluoro-7-methyl-2-(2-methylpiperazin-1-yl)benzoxazole], the “PDE4 inhibitory activity (1 μM (%))” value is reported as 25%. Consider `COc1c(Cl)cc2nc(N3CCNC[C@@H]3C)oc2c1-c1ccccn1` [Example 140, (S)-5-Chloro-6-methoxy-2-(2-methylpiperazin-1-yl)-7-(pyridin-2-yl)benzoxazole], for which the “PDE4 inhibitory activity (1 μM (%))” value is 35%. The figure for `C[C@H]1CNCCN1c1nc2c(C(F)(F)F)c(Cl)cc(-n3cccn3)c2o1` [Example 83, (S)-5-Chloro-2-(2-methylpiperazin-1-yl)-7-(1H-pyrazol-1-yl)-4-(trifluoromethyl)benzoxazole] is 92%. For the compound `COc1c(Cl)cc2nc(N3CCNC[C@@H]3C)oc2c1OC` [Example 169, (S)-5-Chloro-6,7-dimethoxy-2-(2-methylpiperazin-1-yl)benzoxazole], the “PDE4 inhibitory activity (1 μM (%))” value came out at 22%.

Regarding `C[C@H]1CNCCN1c1nc2c(C(F)(F)F)c(F)cc(-c3nccs3)c2o1` [Example 118, (S)-5-Fluoro-2-(2-methylpiperazin-1-yl)-7-(thiazol-2-yl)-4-(trifluoromethyl)benzoxazole], the “PDE4 inhibitory activity (1 μM (%))” value turned out to be 99%. In the case of `CSc1c(Cl)cc(-c2ccccn2)c2oc(N3CCNC[C@@H]3C)nc12` [Example 150, (S)-5-Chloro-2-(2-methylpiperazin-1-yl)-4-(methylthio)-7-(pyridin-2-yl)benzoxazole], the “PDE4 inhibitory activity (1 μM (%))” value was determined as 91%. The figure for `C[C@H]1CNCCN1c1nc2cc(Cl)cc(N3CCOC3=O)c2o1` [Example 72, (S)-5-Chloro-2-(2-methylpiperazin-1-yl)-7-(2-oxo-oxazolidin-3-yl)benzoxazole] is 28%. The result for `CCNC(=O)c1cc(Cl)cc2nc(N3CCNC[C@@H]3C)oc12` [Example 101, (S)-5-Chloro-7-ethylaminocarbonyl-2-(2-methylpiperazin-1-yl)benzoxazole] reads 27%. The result for `C[C@H]1CNCCN1c1nc2c(C(F)(F)F)c(Cl)cc(-c3ccccn3)c2o1` [Example 82, (S)-5-Chloro-2-(2-methylpiperazin-1-yl)-7-(pyridin-2-yl)-4-(trifluoromethyl)benzoxazole] reads 94%.

For the compound `C[C@H]1CNCCN1c1nc2cc(Cl)cc(C#N)c2o1` [Example 10, (S)-5-Chloro-7-cyano-2-(2-methylpiperazin-1-yl)benzoxazole], the “PDE4 inhibitory activity (1 μM (%))” value is 36%. The result for `C[C@H]1CNCCN1c1nc2c(-n3cccn3)cc(Cl)cc2o1` [Example 166, (S)-6-Chloro-2-(2-methylpiperazin-1-yl)-4-(1H-pyrazol-1-yl)benzoxazole] reads 71%; that for `Cc1cc(-c2ccsc2)cc2nc(N3CCNC[C@@H]3C)oc12` [Example 173, (S)-7-Methyl-5-(thiophen-3-yl)-2-(2-methylpiperazin-1-yl)benzoxazole], 35%; that for `C[C@H]1CNCCN1c1nc2c(OC(F)(F)F)c(Cl)cc(-n3cccn3)c2o1` [Example 88, (S)-5-Chloro-2-(2-methylpiperazin-1-yl)-7-(1H-pyrazol-1-yl)-4-(trifluoromethoxy)benzoxazole], 95%. The result for `C[C@H]1CNCCN1c1nc2cc(Cl)cc(-c3ncsc3CO)c2o1` [Example 76, (S)-5-Chloro-7-(5-(hydroxymethyl)thiazol-4-yl)-2-(2-methylpiperazin-1-yl)benzoxazole] reads 73%; that for `C[C@H]1CNCCN1c1nc2cc(Cl)cc(C3CCCCC3)c2o1` [Example 44, (S)-5-Chloro-7-cyclohexyl-2-(2-methylpiperazin-1-yl)benzoxazole], 64%. The result for `C[C@H]1CNCCN1c1nc2cc(Cl)cc(-c3ncccn3)c2o1` [Example 56, (S)-5-Chloro-2-(2-methylpiperazin-1-yl)-7-(pyrimidin-2-yl)benzoxazole] reads 87%; that for `C[C@H]1CNCCN1c1nc2cc(Cl)cc(-c3ccco3)c2o1` [Example 23, (S)-5-Chloro-7-(furan-2-yl)-2-(2-methylpiperazin-1-yl)benzoxazole], 95%. Regarding `CCc1cc(Cl)cc2nc(N3CCNC[C@@H]3C(C)C)oc12` [Example 11, (S)-5-Chloro-7-ethyl-2-(2-isopropylpiperazin-1-yl)benzoxazole], the “PDE4 inhibitory activity (1 μM (%))” value was found to be 26%. `C[C@H]1CNCCN1c1nc2cc(Cl)cc(-c3ccncc3)c2o1` [Example 43, (S)-5-Chloro-2-(2-methylpiperazin-1-yl)-7-(pyridin-4-yl)benzoxazole]: the “PDE4 inhibitory activity (1 μM (%))” value came out at 61%. The result for `Cc1ccc(-c2cc(Cl)cc3nc(N4CCNC[C@@H]4C)oc23)o1` [Example 39, (S)-5-Chloro-7-(5-methylfuran-2-yl)-2-(2-methylpiperazin-1-yl)benzoxazole] reads 42%; that for `C[C@H]1CNCCN1c1nc2cc(Cl)cc(-c3ccc(F)s3)c2o1` [Example 67, (S)-5-Chloro-7-(5-fluorothiophen-2-yl)-2-(2-methylpiperazin-1-yl)benzoxazole], 70%. The figure for `C[C@H]1CNCCN1c1nc2cc(Cl)cc(OCC3CC3)c2o1` [Example 53, (S)-5-Chloro-7-(cyclopropylmethoxy)-2-(2-methylpiperazin-1-yl)benzoxazole] is 50%. The result for `C[C@H]1CNCCN1c1nc2c(-c3ccco3)cc(Cl)cc2o1` [Example 164, (S)-6-Chloro-4-(furan-2-yl)-2-(2-methylpiperazin-1-yl)benzoxazole] reads 75%.
